The text below walks through data of patent US9371387B2 (GACHON UNIVERSITY OF INDUSTRY-ACADEMIC COOPERATION …, priority 2011, dated 2016).

This test has as its system human macrophage cells. The test can be described thus: AGE-albumin synthesis and release by macrophages under oxidative stress (ELISA). Format: cell-based. The conditions noted are these: FIG. 3. The procedure: For the in vitro study, immortal human macrophage cells were employed. The macrophages were grown in DMEM (Dulbecco's modified Eagle's medium, Gibco)-high glucose supplemented with 10% heat-inactivated FBS (fetal bovine serum, Gibco) and […] gentamicin (Sigma-Aldrich) at 37° C. in a 5% CO2 atmosphere.
After incubation at 4° C. for 12 hrs, the plates were washed three times with 1×PBS to remove the antibody which remained non-immobilized to the well, and then was filled with 5% BSA. […] After the plates were washed three time with 1×PBS to remove the antigens which remained unreacted, an anti-AGE antibody (Abcam) was applied at a concentration of 1 ug/ml to each well and incubated at room temperature for 2 hrs. The antibody remaining unreacted was washed off with 1×PBS. Each well was incubated with 1 ug/ml peroxidase-conjugated secondary antibody (Vector laboratory) at room temperature for 2 hrs and washed with 1×PBS to remove the secondary antibodies which remained unreacted. Color was developed with TMB (3,3′,5,5′-tetramethylbenzidine) at room temperature for 20 min. When the TMP buffer turned dark blue, the color development was stopped with 2NH2SO4. Absorbance at 450 nm was read on an ELISA reader (VERSA Max, Molecular Devices) (FIG. 1).

With `O=C1O[C@H]([C@@H](O)CO)C(O)=C1O` [ascorbic acid], the “expression level of AGE-albumin” value (macrophages, addition of antioxidant, irrespective of hypoxia (H2O2)) is “drastically reduced”.

Consider `OO` [hydrogen peroxide], for which the “amount of AGE-albumin” value (macrophages exposed to hydrogen peroxide) is recorded as “increased in a concentration-dependent manner”.
